Literature values in patent publication US20080160503A1, “RAPID ANALYSIS OF ORAL BIOAVAILABILITY” (priority 2006, published 2008).

Conditions: background statement; for bioavailability through the oral route: no data shown; for first-pass metabolism: oral administration, gut wall and liver

NC[C@H](O)c1ccc(O)c(O)c1 [norepinephrine]
bioavailability through the oral route: virtually zero

CC(C)NCC(O)c1ccc(O)c(O)c1 (centres unmarked) [isoproterenol]
first-pass metabolism: extensive | bioavailability through the oral route: virtually zero

C[C@]12CC[C@H]3[C@@H](CCC4=CC(=O)CC[C@@]43C)[C@@H]1CC[C@@H]2O [testosterone]
first-pass metabolism: extensive | bioavailability through the oral route: virtually zero
